Some test systems named below: 786-0 renal; HL-60(TB) leukemia; KM12 colon; MALME-3M melanoma; NCI-H226 lung; NCI-H460 lung; SF-268 CNS; SF-539 CNS; SNB-19 CNS; UO-31 renal.
What all share (assay): inhibition of tumour cell growth, NCI panel, 48 h

SMILES strings stand for the structures.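 96-well plates; 48 h exposure; 5 concentrations. Endpoints by linear interpolation between flanking doses. Not reached: highest tested concentration assigned. GI50 = concentration required for 50% inhibition of growth. TGI: total growth inhibition.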

For `C/C(=C\c1ccn(-c2ccccc2N)n1)[C@@H]1C[C@@H]2O[C@]2(C)CCC[C@H](C)[C@H](O)[C@@H](C)C(=O)C(C)(C)[C@@H](O)CC(=O)O1`, the GI50 with 786-0 renal is 0.0938 µM; in the assay with HL-60(TB) leukemia, 0.0329 µM; with KM12 colon it was 0.0203 µM; in the assay on MALME-3M melanoma, 0.127 µM; with NCI-H226 lung it was 7.14 µM; with NCI-H460 lung, 0.0201 µM. Further, the GI50 in the assay with SF-268 CNS was 0.111 µM; in the assay with SF-539 CNS, 0.0334 µM; with SNB-19 CNS it was 0.184 µM; in the assay with UO-31 renal, 0.302 µM. Moreover, the TGI is over 42.6 µM in the assay on 786-0 renal; 0.228 µM with HL-60(TB) leukemia; over 50 µM in the assay on KM12 colon; over 50 µM in the assay on MALME-3M melanoma; over 50 µM in the assay on NCI-H226 lung; over 50 µM in the assay on NCI-H460 lung. Moreover, the TGI with SF-268 CNS was over 50 µM; with SF-539 CNS, 0.236 µM; in the assay with SNB-19 CNS, over 50 µM; in the assay with UO-31 renal, over 50 µM.

Turning to `OCCCCC#Cc1ccccc1C#Cc1ccc(O)cc1`, the GI50 in the assay on 786-0 renal is 19.4 µM; in the assay on HL-60(TB) leukemia, 18.3 µM; with KM12 colon, 14.5 µM; with MALME-3M melanoma it was 20.9 µM; with NCI-H226 lung it was 18.3 µM; with NCI-H460 lung, 20.6 µM. The GI50 with SF-268 CNS is 16 µM; in the assay on SF-539 CNS, 17.9 µM; with SNB-19 CNS it was 19.2 µM; in the assay on UO-31 renal, 13.2 µM. For the same molecule, the TGI in the assay with 786-0 renal stood at 36.2 µM; in the assay on HL-60(TB) leukemia, 40.5 µM; with KM12 colon, 30.9 µM; with MALME-3M melanoma, 43 µM; in the assay on NCI-H226 lung, 39.1 µM; with NCI-H460 lung, 48.6 µM. Besides, the TGI with SF-268 CNS is 41.7 µM; in the assay with SF-539 CNS, 35.9 µM; in the assay with SNB-19 CNS it was 35.9 µM; in the assay on UO-31 renal, 26.7 µM.

For `CN(C)C(=O)Nc1nc2cc(Cl)c(Cl)cc2[nH]1`, the GI50 with 786-0 renal is 1.21 µM; in the assay on HL-60(TB) leukemia it was 0.241 µM; with KM12 colon, 0.404 µM; in the assay on MALME-3M melanoma, 3.22 µM; in the assay with NCI-H226 lung, 2.83 µM; with NCI-H460 lung, 0.44 µM. Also, the GI50 in the assay with SF-268 CNS was 2.89 µM; in the assay on SF-539 CNS, 0.537 µM; in the assay on SNB-19 CNS, 11.6 µM; in the assay on UO-31 renal it was 5.53 µM. Moreover, the TGI is over 100 µM with 786-0 renal; over 35.7 µM in the assay on KM12 colon; 87.3 µM with MALME-3M melanoma; over 100 µM with NCI-H226 lung; 30 µM in the assay with NCI-H460 lung; over 100 µM in the assay with SF-268 CNS. Moreover, the TGI is 6.05 µM with SF-539 CNS, over 100 µM with SNB-19 CNS and over 100 µM in the assay on UO-31 renal.

The values are drawn from PubChem BioAssay (NCI).
